Assay results from the NIST ThermoML archive (doi:10.1016/j.jct.2018.01.024).
Numbers after ± are expanded uncertainties.

Assay: mn = molality of the nth substance listed, in mol/kg
Settings: Liquid

NC(N)=O [urea] + O
Settings | mass density [kg/m3]
279.15 K, 101 kPa, Vibrating tube method, m1 = 0.1063 | 1001.79 ± 0.08
279.15 K, 101 kPa, Vibrating tube method, m1 = 0.141 | 1002.39 ± 0.08
279.15 K, 101 kPa, Vibrating tube method, m1 = 0.152 | 1002.57 ± 0.08
279.15 K, 101 kPa, Vibrating tube method, m1 = 0.1809 | 1003.07 ± 0.08
279.15 K, 101 kPa, Vibrating tube method, m1 = 0.2423 | 1004.12 ± 0.08
279.15 K, 101 kPa, Vibrating tube method, m1 = 0.4362 | 1007.39 ± 0.08
279.15 K, 101 kPa, Vibrating tube method, m1 = 0.5644 | 1009.51 ± 0.08
279.15 K, 101 kPa, Vibrating tube method, m1 = 1.008 | 1016.61 ± 0.09
279.15 K, 101 kPa, Vibrating tube method, m1 = 1.609 | 1025.68 ± 0.25
279.15 K, 101 kPa, Vibrating tube method, m1 = 2.505 | 1038.19 ± 0.24
280.15 K, 101 kPa, Vibrating tube method, m1 = 0.093 | 1001.51 ± 0.08
280.15 K, 101 kPa, Vibrating tube method, m1 = 0.1063 | 1001.74 ± 0.08
280.15 K, 101 kPa, Vibrating tube method, m1 = 0.141 | 1002.33 ± 0.08
280.15 K, 101 kPa, Vibrating tube method, m1 = 0.152 | 1002.52 ± 0.08
280.15 K, 101 kPa, Vibrating tube method, m1 = 0.1809 | 1003.02 ± 0.08
280.15 K, 101 kPa, Vibrating tube method, m1 = 0.2423 | 1004.06 ± 0.08
280.15 K, 101 kPa, Vibrating tube method, m1 = 0.4362 | 1007.31 ± 0.08
280.15 K, 101 kPa, Vibrating tube method, m1 = 0.5644 | 1009.42 ± 0.08
280.15 K, 101 kPa, Vibrating tube method, m1 = 1.008 | 1016.48 ± 0.09
280.15 K, 101 kPa, Vibrating tube method, m1 = 1.609 | 1025.5 ± 0.25
280.15 K, 101 kPa, Vibrating tube method, m1 = 2.505 | 1037.95 ± 0.22
281.15 K, 101 kPa, Vibrating tube method, m1 = 0.093 | 1001.45 ± 0.08
281.15 K, 101 kPa, Vibrating tube method, m1 = 0.1063 | 1001.67 ± 0.08
281.15 K, 101 kPa, Vibrating tube method, m1 = 0.141 | 1002.26 ± 0.08
281.15 K, 101 kPa, Vibrating tube method, m1 = 0.152 | 1002.46 ± 0.08
281.15 K, 101 kPa, Vibrating tube method, m1 = 0.1809 | 1002.95 ± 0.08
281.15 K, 101 kPa, Vibrating tube method, m1 = 0.2423 | 1003.99 ± 0.08
281.15 K, 101 kPa, Vibrating tube method, m1 = 0.4362 | 1007.21 ± 0.08
281.15 K, 101 kPa, Vibrating tube method, m1 = 0.5644 | 1009.31 ± 0.08
281.15 K, 101 kPa, Vibrating tube method, m1 = 1.008 | 1016.33 ± 0.09
281.15 K, 101 kPa, Vibrating tube method, m1 = 1.609 | 1025.3 ± 0.25
281.15 K, 101 kPa, Vibrating tube method, m1 = 2.505 | 1037.71 ± 0.24
282.15 K, 101 kPa, Vibrating tube method, m1 = 0.093 | 1001.37 ± 0.08
282.15 K, 101 kPa, Vibrating tube method, m1 = 0.1063 | 1001.6 ± 0.08
282.15 K, 101 kPa, Vibrating tube method, m1 = 0.141 | 1002.18 ± 0.08
282.15 K, 101 kPa, Vibrating tube method, m1 = 0.152 | 1002.37 ± 0.08
282.15 K, 101 kPa, Vibrating tube method, m1 = 0.1809 | 1002.86 ± 0.08
282.15 K, 101 kPa, Vibrating tube method, m1 = 0.2423 | 1003.89 ± 0.08
282.15 K, 101 kPa, Vibrating tube method, m1 = 0.4362 | 1007.1 ± 0.08
282.15 K, 101 kPa, Vibrating tube method, m1 = 0.5644 | 1009.18 ± 0.08
282.15 K, 101 kPa, Vibrating tube method, m1 = 1.008 | 1016.17 ± 0.09
282.15 K, 101 kPa, Vibrating tube method, m1 = 1.609 | 1025.12 ± 0.24
282.15 K, 101 kPa, Vibrating tube method, m1 = 2.505 | 1037.45 ± 0.24
283.15 K, 101 kPa, Vibrating tube method, m1 = 0.093 | 1001.28 ± 0.08
283.15 K, 101 kPa, Vibrating tube method, m1 = 0.1063 | 1001.51 ± 0.08
283.15 K, 101 kPa, Vibrating tube method, m1 = 0.141 | 1002.09 ± 0.08
283.15 K, 101 kPa, Vibrating tube method, m1 = 0.152 | 1002.27 ± 0.08
283.15 K, 101 kPa, Vibrating tube method, m1 = 0.1809 | 1002.76 ± 0.08
283.15 K, 101 kPa, Vibrating tube method, m1 = 0.2423 | 1003.78 ± 0.08
283.15 K, 101 kPa, Vibrating tube method, m1 = 0.4362 | 1006.97 ± 0.08
283.15 K, 101 kPa, Vibrating tube method, m1 = 0.5644 | 1009.04 ± 0.08
283.15 K, 101 kPa, Vibrating tube method, m1 = 1.008 | 1016 ± 0.09
283.15 K, 101 kPa, Vibrating tube method, m1 = 1.609 | 1024.89 ± 0.25
283.15 K, 101 kPa, Vibrating tube method, m1 = 2.505 | 1037.2 ± 0.24
288.15 K, 101 kPa, Vibrating tube method, m1 = 0.093 | 1000.63 ± 0.09
288.15 K, 101 kPa, Vibrating tube method, m1 = 0.1063 | 1000.85 ± 0.08
288.15 K, 101 kPa, Vibrating tube method, m1 = 0.141 | 1001.42 ± 0.08
288.15 K, 101 kPa, Vibrating tube method, m1 = 0.152 | 1001.6 ± 0.08
288.15 K, 101 kPa, Vibrating tube method, m1 = 0.1809 | 1002.08 ± 0.08
288.15 K, 101 kPa, Vibrating tube method, m1 = 0.2423 | 1003.08 ± 0.08
288.15 K, 101 kPa, Vibrating tube method, m1 = 0.4362 | 1006.2 ± 0.08
288.15 K, 101 kPa, Vibrating tube method, m1 = 0.5644 | 1008.22 ± 0.08
288.15 K, 101 kPa, Vibrating tube method, m1 = 1.008 | 1015 ± 0.09
288.15 K, 101 kPa, Vibrating tube method, m1 = 1.609 | 1023.7 ± 0.24
288.15 K, 101 kPa, Vibrating tube method, m1 = 2.505 | 1035.73 ± 0.23
288.15 K, 101 kPa, Vibrating tube method, m1 = 3.376 | 1046.46 ± 0.21
288.15 K, 101 kPa, Vibrating tube method, m1 = 4.33 | 1057.3 ± 0.2
288.15 K, 101 kPa, Vibrating tube method, m1 = 5.39 | 1068.26 ± 0.93
288.15 K, 101 kPa, Vibrating tube method, m1 = 8 | 1091.62 ± 0.85
288.15 K, 101 kPa, Vibrating tube method, m1 = 9.9 | 1105.86 ± 0.69
288.15 K, 101 kPa, Vibrating tube method, m1 = 12.8 | 1124.47 ± 0.65
288.15 K, 10000 kPa, Constant-volume piezometry, m1 = 0.1809 | 1006.62 ± 0.18
288.15 K, 10000 kPa, Constant-volume piezometry, m1 = 0.4362 | 1010.71 ± 0.19
288.15 K, 10000 kPa, Constant-volume piezometry, m1 = 0.5644 | 1012.73 ± 0.19
288.15 K, 10000 kPa, Constant-volume piezometry, m1 = 1.609 | 1028.1 ± 0.25
288.15 K, 10000 kPa, Constant-volume piezometry, m1 = 2.505 | 1040.04 ± 0.26
288.15 K, 10000 kPa, Constant-volume piezometry, m1 = 3.376 | 1050.69 ± 0.26
288.15 K, 10000 kPa, Constant-volume piezometry, m1 = 5.39 | 1072.37 ± 1.1
288.15 K, 10000 kPa, Constant-volume piezometry, m1 = 8 | 1095.6 ± 1.1
288.15 K, 10000 kPa, Constant-volume piezometry, m1 = 10.99 | 1117.15 ± 1.1
288.15 K, 10000 kPa, Constant-volume piezometry, m1 = 12.8 | 1128.28 ± 1.1
288.15 K, 25000 kPa, Constant-volume piezometry, m1 = 0.1809 | 1013.33 ± 0.27
288.15 K, 25000 kPa, Constant-volume piezometry, m1 = 0.4362 | 1017.37 ± 0.27
288.15 K, 25000 kPa, Constant-volume piezometry, m1 = 0.5644 | 1019.38 ± 0.27
288.15 K, 25000 kPa, Constant-volume piezometry, m1 = 1.609 | 1034.57 ± 0.33
288.15 K, 25000 kPa, Constant-volume piezometry, m1 = 2.505 | 1046.37 ± 0.33
288.15 K, 25000 kPa, Constant-volume piezometry, m1 = 3.376 | 1056.91 ± 0.34
288.15 K, 25000 kPa, Constant-volume piezometry, m1 = 5.39 | 1078.39 ± 1.1
288.15 K, 25000 kPa, Constant-volume piezometry, m1 = 8 | 1101.46 ± 1.1
288.15 K, 25000 kPa, Constant-volume piezometry, m1 = 10.99 | 1122.84 ± 1.2
288.15 K, 25000 kPa, Constant-volume piezometry, m1 = 12.8 | 1133.9 ± 1.2
288.15 K, 50000 kPa, Constant-volume piezometry, m1 = 0.1809 | 1024.08 ± 0.47
288.15 K, 50000 kPa, Constant-volume piezometry, m1 = 0.4362 | 1028.05 ± 0.47
288.15 K, 50000 kPa, Constant-volume piezometry, m1 = 0.5644 | 1029.99 ± 0.47
288.15 K, 50000 kPa, Constant-volume piezometry, m1 = 1.609 | 1044.87 ± 0.51
288.15 K, 50000 kPa, Constant-volume piezometry, m1 = 2.505 | 1056.4 ± 0.51
288.15 K, 50000 kPa, Constant-volume piezometry, m1 = 3.376 | 1066.74 ± 0.52
288.15 K, 50000 kPa, Constant-volume piezometry, m1 = 5.39 | 1087.86 ± 1.2
288.15 K, 50000 kPa, Constant-volume piezometry, m1 = 8 | 1110.67 ± 1.2
288.15 K, 50000 kPa, Constant-volume piezometry, m1 = 10.99 | 1131.87 ± 1.2
288.15 K, 50000 kPa, Constant-volume piezometry, m1 = 12.8 | 1142.81 ± 1.3
288.15 K, 75000 kPa, Constant-volume piezometry, m1 = 0.1809 | 1034.29 ± 0.67
288.15 K, 75000 kPa, Constant-volume piezometry, m1 = 0.4362 | 1038.17 ± 0.67
288.15 K, 75000 kPa, Constant-volume piezometry, m1 = 0.5644 | 1040.07 ± 0.67
288.15 K, 75000 kPa, Constant-volume piezometry, m1 = 1.609 | 1054.62 ± 0.71
288.15 K, 75000 kPa, Constant-volume piezometry, m1 = 2.505 | 1065.93 ± 0.71
288.15 K, 75000 kPa, Constant-volume piezometry, m1 = 3.376 | 1076.06 ± 0.72
288.15 K, 75000 kPa, Constant-volume piezometry, m1 = 5.39 | 1096.81 ± 1.3
288.15 K, 75000 kPa, Constant-volume piezometry, m1 = 8 | 1119.36 ± 1.3
288.15 K, 75000 kPa, Constant-volume piezometry, m1 = 10.99 | 1140.4 ± 1.4
288.15 K, 75000 kPa, Constant-volume piezometry, m1 = 12.8 | 1151.22 ± 1.4
288.15 K, 100000 kPa, Constant-volume piezometry, m1 = 0.1809 | 1043.99 ± 0.88
288.15 K, 100000 kPa, Constant-volume piezometry, m1 = 0.4362 | 1047.8 ± 0.88
